Data reported in PubChem BioAssay (NCI).
Where “and” joins values, the source holds several entries; their conditions need not be identical. Identical values can stand only once.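 Where inhibition never reached the appropriate level, the endpoint shown equals the highest concentration tested. Otherwise, values were interpolated linearly from a five-concentration, 48-hour dose response in 96-well plates. GI50 = concentration required for 50% inhibition of growth. TGI: total growth inhibition.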

Tests used:
Test in all cases: growth of human tumour cells (NCI), 48 h
MALME-3M melanoma = test system: MALME-3M melanoma
SK-OV-3 ovarian = test system: SK-OV-3 ovarian
RXF 393 renal = test system: RXF 393 renal
U251 CNS = test system: U251 CNS
DLD-1 colon = test system: DLD-1 colon
SR leukemia = test system: SR leukemia
CAKI-1 renal = test system: CAKI-1 renal
XF 498 CNS = test system: XF 498 CNS
DU-145 prostate = test system: DU-145 prostate
PC-3 prostate = test system: PC-3 prostate

Row | Compound | TGI (MALME-3M melanoma) | TGI (SK-OV-3 ovarian) | TGI (RXF 393 renal) | TGI (U251 CNS) | TGI (DLD-1 colon) | TGI (SR leukemia) | TGI (CAKI-1 renal) | TGI (XF 498 CNS) | TGI (DU-145 prostate) | TGI (PC-3 prostate) | GI50 (MALME-3M melanoma) | GI50 (SK-OV-3 ovarian) | GI50 (RXF 393 renal) | GI50 (U251 CNS) | GI50 (DLD-1 colon) | GI50 (CAKI-1 renal) | GI50 (PC-3 prostate) | GI50 (SR leukemia) | GI50 (DU-145 prostate)
1 | CCC1(O)C(=O)OCc2c1cc1n(c2=O)Cc2c-1nc1ccccc1c2OC (centres undefined) | 25.3 µM | 7.47 µM | 0.11 µM | 0.0801 µM | > 100 µM | < 0.01 µM | 1.8 µM | – | – | – | – | – | – | – | – | – | – | – | –
2 | Cn1c(O)c(C=N)c(=O)n(C)c1=O | > 100 µM | – | > 100 µM | > 100 µM | > 100 µM | > 100 µM | > 100 µM | > 100 µM | – | – | – | – | – | – | – | – | – | – | –
3 | CC1=C(C)C(=O)c2c(cc3c4ccccc4ccn23)C1=O | > 100 µM | > 100 µM | > 100 µM | > 100 µM | > 100 µM | – | – | > 100 µM | – | – | – | – | – | – | – | – | – | – | –
4 | CCOC(=O)NC(=O)c1cn(CCCCCCCCCCC(=O)N2CCN(CCn3cc(C(=O)NC(=O)OCC)c(=O)[nH]c3=O)CC2)c(=O)[nH]c1=O | – | > 100 µM | > 100 µM | > 100 µM | > 100 µM | – | > 100 µM | > 100 µM | – | – | – | – | – | – | – | – | – | – | –
5 | O=[N+]([O-])c1ccccc1S(=O)(=O)c1ccccc1[N+](=O)[O-] | > 100 µM | > 100 µM | 83.8 µM | 66.5 µM | > 100 µM | > 100 µM | > 100 µM | 72.4 µM | > 100 µM | > 100 µM | – | – | – | – | – | – | – | – | –
6 | Cn1nc(-c2ccccc2)c(C(=O)/C=C/c2ccccc2)c(N2CCCCC2)c1=O | – | > 100 µM | 73.1 µM | > 100 µM | > 100 µM | – | 60.1 µM | – | – | – | – | – | – | – | – | – | – | – | –
7 | S=C1CNC(=S)CN1 | > 100 µM | > 100 µM | > 100 µM | > 100 µM | > 100 µM | > 100 µM | > 100 µM | – | – | – | – | – | – | – | – | – | – | – | –
8 | CCC[CH2][Sn]([CH2]CCC)([O]C(=O)c1cc(OC)c(OC)c(OC)c1)[O]C(=O)c1cc(OC)c(OC)c(OC)c1 | 2.17 µM | 3.25 µM | 1.12 µM | 2.55 µM | 2.46 µM | – | 1.31 µM | – | – | – | 0.946 µM | 1.69 µM | 0.297 µM | 1.28 µM | 1.21 µM | 0.3 µM | – | – | –
9 | COC1OC(COCc2ccc(Cl)cc2)C(OCc2ccc(Cl)cc2)C1O (centres undefined) | 30.3 µM | 65.9 µM | 29.1 µM | 29.1 µM | 34.1 µM | – | 54.2 µM | 16 µM | – | – | – | – | – | – | – | – | – | – | –
10 | O=C1C(CN(Cc2ccccc2)Cc2ccccc2)CCCC1CN(Cc1ccccc1)Cc1ccccc1 (centres undefined) | 14.3 µM and > 83 µM | > 77 µM and 97.5 µM | > 100 µM | > 100 µM | 10.4 µM and > 100 µM | > 100 µM | 11.5 µM and > 100 µM | 28.4 µM | > 100 µM | > 100 µM | 8.03 µM and 36.3 µM | – | 20.1 µM and > 100 µM | 41.7 µM and > 100 µM | – | – | > 100 µM and 41.5 µM | 77.3 µM | –
11 | CCCCCCCCCCCCCCCCc1c(C(=O)OC)[nH]c(=S)[nH]c1=O | > 50 µM | > 50 µM | > 50 µM | > 50 µM | > 50 µM | 32 µM | > 50 µM | > 50 µM | – | – | – | – | – | – | – | – | – | – | –
12 | CCOC(=O)/C(=C/c1cc(OC)ccc1OC)CC(=O)O | > 31.6 µM | > 100 µM | > 100 µM | > 100 µM | > 31.6 µM | > 100 µM | > 100 µM | > 56.7 µM | – | – | – | – | – | – | – | – | – | – | –
13 | O=S1Cc2ccccc2CS1 (centres undefined) | 26.4 µM | > 100 µM | 29.5 µM | 24.5 µM | 33.5 µM | 64.4 µM | 31.1 µM | 32.6 µM | – | – | – | – | – | – | – | – | – | – | –
14 | CC(=O)NC(ON1C(=O)COc2ccccc21)C(Cl)(Cl)Cl (centres undefined) | > 100 µM | > 100 µM | – | > 100 µM | > 100 µM | > 100 µM | > 100 µM | > 100 µM | – | – | – | – | – | – | – | – | – | – | –
15 | Cc1ccc(NC(=O)C2C(=O)C(=O)N(c3ccc(C)cc3)C2=O)cc1 (centres undefined) | > 100 µM | – | > 100 µM | > 100 µM | > 100 µM | > 100 µM | – | – | – | – | – | – | – | – | – | – | – | – | –
16 | COc1ccccc1/C=C1\CCC(CN(C)C)C1=O (centres undefined) | 16.2 µM | 33.7 µM | 9.13 µM | 26.9 µM | 4.98 µM | 13 µM | 12 µM | 32.6 µM | 47.1 µM | 18 µM | – | – | – | – | – | – | – | – | –
17 | Nc1ccccc1S(=O)c1ccccc1 (centres undefined) | > 100 µM | > 100 µM | > 100 µM | > 100 µM | – | – | > 1 µM | > 100 µM | – | – | – | – | – | – | – | – | – | – | –
18 | C[C@H]1O[C@@H](O[C@H]2[C@@H](O)C[C@H](O[C@H]3[C@@H](O)C[C@H](O[C@H]4CC[C@]5(C)C6C[C@@H](O)[C@]7(C)[C@@H](C8=CC(=O)OC8)CC[C@]7(O)C6CC[C@@H]5C4)O[C@@H]3C)O[C@@H]2C)C[C@H](O)[C@@H]1O (some centres undefined) | 0.262 µM | 0.164 µM | 0.198 µM | 0.145 µM | – | 0.307 µM | 0.261 µM | – | 0.0968 µM | 0.783 µM | 0.115 µM | 0.0821 µM | 0.0634 µM | 0.0668 µM | – | 0.0857 µM | 0.0573 µM | 0.0552 µM | 0.0329 µM
19 | CC(=O)c1cc2c3c(c1)c1cc4c(cc1c(=O)n3CC2)OCO4 | > 100 µM | > 100 µM | > 100 µM | > 100 µM | > 100 µM | 34.9 µM | 91.3 µM | > 100 µM | – | – | – | – | – | – | – | – | – | – | –
20 | Cc1cc(=O)[nH]c(CNC(=O)c2cccc3ccccc23)n1 | > 100 µM | > 100 µM | > 100 µM | > 100 µM | > 100 µM | > 100 µM | > 100 µM | > 100 µM | – | – | – | – | – | – | – | – | – | – | –
21 | c1ccc2c(c1)nnn1c3cnccc3nc21 | > 100 µM | > 100 µM | 66.3 µM | > 100 µM | > 100 µM | – | > 100 µM | – | – | – | – | – | – | – | – | – | – | – | –
22 | CC1C(=O)CCC1C(Sc1ccccc1)(Sc1ccccc1)Sc1ccccc1 (centres undefined) | > 100 µM | > 100 µM | 51.3 µM | > 100 µM | > 100 µM | – | > 100 µM | 80.9 µM | – | – | – | – | – | – | – | – | – | – | –
23 | C=C1C(=O)O[C@H]2[C@H]1CC/C(COC(=O)NCc1c[nH]c3ccc(OC)cc13)=C\CC[C@@]1(C)O[C@@H]21 | 4.24 µM | 25.2 µM | 2.52 µM | 14 µM | – | 4.38 µM | 3.28 µM | – | 2.83 µM | 2.59 µM | 2.14 µM | 12.7 µM | 1.18 µM | 3.39 µM | – | 1.46 µM | 1.07 µM | 0.331 µM | 1.35 µM
24 | CCCCC(SC(=S)N(CC)CC)C(=O)Nc1nc(CC(=O)OCC)cs1 (centres undefined) | > 100 µM | > 100 µM | > 100 µM | > 100 µM | – | > 100 µM | > 100 µM | – | > 100 µM | > 100 µM | 24.8 µM | 75.6 µM | 32.5 µM | 42.1 µM | – | 91.7 µM | 0.776 µM | 29.4 µM | 98.3 µM
25 | O=[n+]1cnn([O-])c2ccccc21 | 47.6 µM | > 100 µM | 59.6 µM | > 100 µM | – | > 100 µM | 55.1 µM | – | > 100 µM | > 100 µM | – | – | – | – | – | – | – | – | –
